Source: US20250090820A1, “LOCALIZED DRUG DELIVERY TO PREVENT VASCULAR RESTENOSIS” (Ohio State Innovation Foundation, priority 2022, published 2025)

Test: Release of model compounds from sintered electrospun PCL fiber capsules
Format: physicochemical
Conditions: for ranking of release of model compounds: controlled by molecular weight and available porosity
Description: Electrospinning has been used widely for drug delivery due to its versatility and ease of modification of fiber properties. However, total drug loading and release is typically limited by the inherent surface area. Instead a sintering of electrospun fiber to create injectable capsules favoring controlled delivery of low molecular weight compounds was used. As electrospun, the fully resorbable, biocompatible polymer polycaprolactone (PCL) retains its morphology out to 1,042 days of in vitro exposure, illustrating its potential for extended performance. Sintering decreases the pore size by 10- and 28-fold following 56 and 57° C. exposures, respectively. After the 58 and 59° C. exposures, these PCL capsules lose all apparent surface porosity but entrapped pores are observed in the 58° C. cross-section. […] The model drug adsorption on the available surface area (57 versus 56° C.) and entrapped porosity (59 versus 58° C.) could have also attributed to the observed ranking of release rates.
FIGS. 5A-5H show images of microstructural transformations at different temperatures (56° C. to 59° C.). […] Little difference between 56° C. and 57° C. sintering and unsintered fiber˜100% release. […] At 58° C. and 59° C. release is flipped: faster release at lower porosity. RhB is a relatively small molecule. Intermittent adsorption to surface of remaining porosity greatly slows release. […] No condition achieves˜100% release out to 12 days. […] At 58° C. and 59° C. release are still flipped but not as dramatic: faster release at lower porosity. Intermittent adsorption to surface of remaining porosity continues to slow release but increased molecular weight decreases net differences in diffusion. […] Much larger molecule needs fully open porosity for any release to occur. […] Diffusion through dense PCL is zero. […] FIGS. 11A-11B show relatively little porosity remains. This makes a substantial difference in diffusion and surface controlled release. Sequestration within the wall. FIGS. 12A-12D and 13A-13F show controlled salt confinement for controlled porosity using HEPES salt. […] Extraction was performed using deionized water at 37° C. for 24 hours plus gentle shaking. In most cases extraction was nearly complete. It is likely that Na^+ was retained and has measurable effects on mechanical properties.

Compound | percent RB release of 200 μg (any sintering condition, out to 12 days) [%] | RB release profile (capsules sintered at 58° C. and 59° C.) | ranking of release of model compounds | Diffusion through dense PCL (dense PCL wall) | BSA-FITC release profile (release of 200 μg versus time, needs fully open porosity) | percent RhB release of 200 μg (56° C. and 57° C. sintering and unsintered fiber) [%] | RhB release profile (capsules sintered at 58° C.)
O=C1OC2(c3cc(I)c(O)c(I)c3Oc3c2cc(I)c(O)c3I)c2c(Cl)c(Cl)c(Cl)c(Cl)c21 [RB, Rose Bengal] | < 100 | linear release out to 12 days | RhB>RB>>BSA-FITC | – | – | – | –
albumin-fluorescein isothiocyanate conjugate from bovine serum [BSA-FITC] | – | – | RhB>RB>>BSA-FITC | zero | Release plateaus quickly | – | –
CCN(CC)c1ccc2c(-c3ccccc3C(=O)O)c3ccc(=[N+](CC)CC)cc-3oc2c1.[Cl-] [RhB, Rhodamine B] | – | – | RhB>RB>>BSA-FITC | – | – | ~100 | linear release out to 12 days
